For nine compounds, GI50 and IC50 results are on record in patent US10538528B2, “5H-pyrrolo[2,3-D]pyrimidin-6(7H)-one derivative” (Taiho Pharmaceutical Co., Ltd., priority 2016, dated 2020).

Experiment [1] has as its system RKO cells (human colon cancer cell lines). In words: Cell growth inhibition study using RKO cells (CellTiter-Glo). Format: cell-based. Particulars: 72 h, 3 days. Here is the method:
The in vitro cell growth inhibition study using RKO cells (human colon cancer cell lines) was conducted as described below.
RKO cells (ATCC, Cat#: CRL-2577) cultured in a MEM medium (GIBCO, Cat#:10370-088) supplemented with 10% FBS, 1 mM L-glutamine (GIBCO, Cat#:25030), and 1 mM sodium pyruvate (GIBCO, Cat#:11360) were seeded in a 96-well flat bottom microplate (COSTAR, Cat#:3904) at 2×10^3 cells (150 μl) and cultured in an incubator containing 5% CO2 at 37° C. for 1 day. The compound according to the present invention subjected to serial dilution with dimethyl sulfoxide or dimethyl sulfoxide alone was added to a MEM medium containing 10% FBS, 1 mM L-glutamine, and 1 mM sodium pyruvate. The resultant medium containing the compound or dimethyl sulfoxide alone was added to the RKO cells in the culture plate by 50 μl/well at the final concentration of the compound to 10, 3, 1, 0.3, 0.1, 0.03, 0.01, 0.003, and 0 μM, respectively. Another RKO cell culture plate separately prepared was allowed to stand at room temperature for 30 minutes, then 100 μl of the medium was removed, and added 50 μl of CellTiter-Glo® 2.0 Assay (Promega, Cat#:G9242) to each well. After the plates were placed in the dark for 10 minutes, the luminescence level derived from viable cells in each well was measured by the Multimode Plate Reader (PerkinElmer, EnSpire). The cells treated with the compound or dimethyl sulfoxide alone were cultured at 37° C. in an incubator containing 5% CO2 for an additional 3 days. After incubation, the culture plate was placed at room temperature for 30 minutes, and 150 μl of the supernatant was removed from each well to adjust the amount of the remaining cell culture solution to 50 μl each. To 50 μl of the remaining cell culture solution, the equivalent amount of CellTiter-Glo® 2.0 Assay was added. After the cell culture plate was placed in the dark for 10 minutes, the luminescence level derived from viable cells in each well was assayed with the use of the Multimode Plate Reader. The cell growth rate was calculated by the formulae shown below and the concentration at which the cell growth rate became 50%; i.e., the concentration of the compound according to the present invention at which cell growth would be inhibited by 50% was determined (GI50 (nM)). Cell growth rate (%)=(T−C0)/(C−C0)×100, provided that T is equal to or greater than C0(T≥C0) Cell growth rate (%)=(T−C0)/C0×100, provided that T is less than C0(T<C0) C0: Luminescence level in each well when the compound is added (count per second) C: Luminescence level in each well when dimethyl sulfoxide is added alone (count per second) T: Luminescence level in each well when the test compound is added (count per second)
As control compounds, conventional Comparative Example A (WO 2010/056563 (Example 31)) and Comparative Example B having inhibitory activity against Akt were used.
The GI50 levels of representative compounds according to the present invention and reference compounds in RKO cells were evaluated, and the results are shown in Table 5.

Another experiment deals with human Akt1 (Homo sapiens (Human), UniProt P31749). The experiment in a line: Inhibitory effects on Akt1 kinase activity (TR-FRET, biotinylated Crosstide). Format: biochemical. As to conditions: Akt1, ATP 150 μM, pre-incubation 120 minutes at 25° C.; read-out: AKT inhibitory activity IC50. As for the experimental part:
Akt1 was prepared and assays of inhibitory activity of the compound according to the present invention against Akt1 kinase activity in vitro were conducted according to the method described in Biochem. J., vol. 385, pp. 399-408, 2005 and Cancer Res., vol. 68, pp. 2366-2374, 2008. In the preparation of Akt1 protein, human Akt1 tagged with the middle T antigen was expressed in an insect cell Sf9, Akt1 was prepared through affinity purification and activation by PDK1, and the resultant was stored at −80° C. until the inhibition assays of the compounds. In the inhibition assay of the compounds, Akt1 and the compound according to the present invention were subjected to pre-incubation at 25° C. for 120 minutes in a reaction buffer (15 mM Tris-HCl, pH 7.5, 0.01% Tween-20, 2 mM DTT). Subsequently, biotinylated Crosstide (biotin-[…], Millipore), MgCl2, and ATP were added as substrates at the final concentration of 500 nM, 10 mM, and 150 μM, respectively, and the reaction was allowed to proceed at 25° C. for 60 minutes. EDTA was added to the final concentration of 40 mM to terminate the reaction, a detection liquid containing the Eu-anti-phospho-Crosstide antibody (PerkinElmer) and SureLight APC-SA (PerkinElmer) at the final concentration of 0.5 nM and 62.5 nM, respectively was added, and the reaction was allowed to proceed at room temperature for 2 hours. In the end, the fluorescence levels irradiated with an excitation light of 337 nm were assayed at two different wavelength levels (i.e., 620 nm and 665 nm) using PI-HERAstar FS (BMG LABTECH) or PHERAstar (BMG LABTECH). The level of the phosphorylation reaction was determined on the basis of the ratio of fluorescence levels at two wavelength levels, and the concentration of the compound at which phosphorylation could be inhibited by 50% was defined as the IC50 level (nM) and shown in Table 2.
As reference compounds, conventional Comparative Example A (WO 2010/056563 (Example 31)) and Comparative Example B having inhibitory activity against Akt were used.

A further experiment deals with Rsk1 (Homo sapiens (Human), UniProt Q15418). The experiment in a line: Inhibitory effects on Rsk1 kinase activity (QSS Assist FP assay kit). Format: biochemical. Particulars: Rsk1, ATP 30 μM; read-out: Rsk inhibitory activity IC50.
A further experiment addresses S6K1 (Homo sapiens (Human), UniProt P23443). The experiment in a line: Inhibitory effects on S6K1 kinase activity (QSS Assist FP assay kit). It is filed as biochemical. As to conditions: S6K1, ATP 25 μM; read-out: S6K inhibitory activity IC50. The gist of the method:
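S6K protein with 100 nM substrate peptide, 5 mM MgCl2, 25 μM ATP and 5% DMSO, in 20 mM HEPES pH 7.4, reacted 30 min at 25 °C. Reaction stopped with IMAP binding reagent, 120 min dark, then fluorescence polarization (ex 485/em 520 nm) read.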

Experiment [2] has as its system HEC-6 cells (endometrial cancer cell lines). In words: Cell growth suppression test on HEC-6 cells (CellTiter-Glo). Format: cell-based. As to conditions: 72 h, read-out: Cell growth inhibition GI50, heading: Cell growth inhibition GI50, 3 days, table head prints μM, method says GI50 (nM). As for the experimental part: The in vitro cell growth suppression test on HEC-6 cells (endometrial cancer cell lines) was performed under the conditions described below.
HEC-6 cells (Health Science Research Resources Bank, Cell Number: JCRB1118) cultured in a MEM medium containing 15% FBS (GIBCO, Cat#: 10370) were seeded on a 384-well flat bottom microplate (CORNING, Cat#: 3571) at 500 cells/well (20 μl) and cultured in an incubator containing 5% carbon dioxide at 37° C. for 1 day. The compound according to the present invention subjected to serial dilution with dimethyl sulfoxide or dimethyl sulfoxide alone was added to a MEM medium containing 15% FBS. […] Thereafter, the luminescence level derived from viable cells in each well was assayed with the use of the Multimode Plate Reader (PerkinElmer, EnVision). […] Thereafter, the luminescence level derived from viable cells in each well was assayed with the use of the Multimode Plate Reader. […] Cell growth rate (%)=(T−C0)/(C−C0)×100, provided that T is equal to or greater than C0(T≥C0) Cell growth rate (%)=(T−C0)/C0×100, provided that T is less than C0(T<C0) C0: Luminescence level in each well when the compound is added (count per second) C: Luminescence level in each well when dimethyl sulfoxide is added alone (count per second) T: Luminescence level in each well when the test compound is added (count per second) […]
A general note: In ATP-based viability assays light output follows the ATP content of the culture.

Sequence of S6K1 (P23443 whole entry): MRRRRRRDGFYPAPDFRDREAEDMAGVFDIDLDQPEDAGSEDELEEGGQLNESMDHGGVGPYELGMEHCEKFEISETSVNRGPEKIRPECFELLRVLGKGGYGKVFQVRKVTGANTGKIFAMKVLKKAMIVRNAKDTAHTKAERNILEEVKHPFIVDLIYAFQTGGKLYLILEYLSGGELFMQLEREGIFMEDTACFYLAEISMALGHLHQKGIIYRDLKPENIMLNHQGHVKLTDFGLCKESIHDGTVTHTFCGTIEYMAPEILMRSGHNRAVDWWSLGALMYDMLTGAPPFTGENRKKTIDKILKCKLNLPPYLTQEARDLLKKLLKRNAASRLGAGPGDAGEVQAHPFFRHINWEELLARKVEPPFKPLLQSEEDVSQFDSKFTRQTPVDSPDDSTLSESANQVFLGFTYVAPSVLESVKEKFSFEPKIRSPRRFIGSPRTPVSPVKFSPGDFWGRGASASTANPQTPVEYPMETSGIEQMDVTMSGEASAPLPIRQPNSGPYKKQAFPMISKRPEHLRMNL
Sequence of Rsk1 (Q15418 whole entry): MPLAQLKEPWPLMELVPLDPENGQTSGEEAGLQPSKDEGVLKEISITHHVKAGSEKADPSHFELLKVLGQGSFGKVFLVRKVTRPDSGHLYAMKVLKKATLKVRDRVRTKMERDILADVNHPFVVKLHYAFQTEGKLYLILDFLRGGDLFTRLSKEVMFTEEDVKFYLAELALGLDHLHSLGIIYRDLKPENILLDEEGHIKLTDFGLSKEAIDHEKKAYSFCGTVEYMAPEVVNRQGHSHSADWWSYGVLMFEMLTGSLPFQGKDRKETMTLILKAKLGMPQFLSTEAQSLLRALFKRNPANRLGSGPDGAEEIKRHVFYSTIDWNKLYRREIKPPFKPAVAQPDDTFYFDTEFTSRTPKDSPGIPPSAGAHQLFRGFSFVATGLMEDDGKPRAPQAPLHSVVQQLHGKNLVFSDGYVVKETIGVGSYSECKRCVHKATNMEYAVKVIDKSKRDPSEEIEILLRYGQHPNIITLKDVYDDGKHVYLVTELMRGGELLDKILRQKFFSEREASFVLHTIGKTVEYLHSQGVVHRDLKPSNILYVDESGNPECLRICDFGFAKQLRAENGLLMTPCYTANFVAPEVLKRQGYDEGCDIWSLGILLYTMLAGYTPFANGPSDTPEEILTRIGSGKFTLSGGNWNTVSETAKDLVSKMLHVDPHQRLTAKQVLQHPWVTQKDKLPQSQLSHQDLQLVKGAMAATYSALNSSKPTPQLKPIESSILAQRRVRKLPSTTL
Sequence of human Akt1 (P31749 whole entry): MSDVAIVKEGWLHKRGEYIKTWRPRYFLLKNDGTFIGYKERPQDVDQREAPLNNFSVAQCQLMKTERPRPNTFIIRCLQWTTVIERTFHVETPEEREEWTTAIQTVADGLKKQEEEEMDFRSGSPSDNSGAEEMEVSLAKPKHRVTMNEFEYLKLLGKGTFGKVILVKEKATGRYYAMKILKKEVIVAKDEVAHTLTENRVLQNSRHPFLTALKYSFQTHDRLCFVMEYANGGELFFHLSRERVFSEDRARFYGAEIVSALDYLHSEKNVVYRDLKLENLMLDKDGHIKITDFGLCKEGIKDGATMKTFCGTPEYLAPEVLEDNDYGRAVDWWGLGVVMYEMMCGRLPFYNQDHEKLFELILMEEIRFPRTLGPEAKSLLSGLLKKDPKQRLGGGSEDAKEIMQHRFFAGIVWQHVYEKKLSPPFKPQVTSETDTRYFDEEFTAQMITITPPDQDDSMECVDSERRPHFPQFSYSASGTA

Broadly, the GI50 is the concentration giving 50% growth inhibition. In general, IC50 refers to the concentration at which inhibition is half-maximal. `CC(C)(C)NCCNc1ccc(-c2noc(C(F)F)n2)nc1C1CCN(c2ncnc3c2C(C)(C)C(=O)N3)CC1` [Compound 41, 4-(4-(3-((2-(Tert-butylamino)ethyl)amino)-6-(5-(difluoromethyl)-1,2,4-oxadiazol-3-yl)pyridin-2-yl)piperidin-1-yl)-5,5-dimethyl-5H-pyrrolo[2,3-d]pyrimidin-6(7H)-one] returned a GI50 in experiment [1] of 86 nM. For the same compound, the results for the IC50 at human Akt1, on Rsk1 and at S6K1 were 7.2 nM, 1.6 nM and 0.3 nM, respectively.

Regarding `CC1C(=O)Nc2ncnc(N3CCC(c4nc(-c5ccnc(F)c5)ccc4NCCN4CCCC4)CC3)c21` (stereo not drawn) [Compound 13, 4-(4-(2′-Fluoro-5-((2-(pyrrolidin-1-yl)ethyl)amino)-[2,4′-bipyridin]-6-yl)piperidin-1-yl)-5-methyl-5H-pyrrolo[2,3-d]pyrimidin-6(7H)-one], in experiment [1], the GI50 stood at 111 nM. In addition, the IC50 at human Akt1 worked out at 1.4 nM; on Rsk1 it was 1.4 nM; on S6K1, 0.4 nM.

In experiment [1], `CC1C(=O)Nc2ncnc(N3CCC(c4cc(-c5cc(C(F)(F)F)nn5C)cnc4NCCN4CCCC4)CC3)c21` (stereo not drawn) [Compound 27, 5-Methyl-4-(4-(5-(1-methyl-3-(trifluoromethyl)-1H-pyrazol-5-yl)-2-((2-(pyrrolidin-1-yl)ethyl)amino)pyridin-3-yl)piperidin-1-yl)-5H-pyrrolo[2,3-d]pyrimidin-6(7H)-one] registered a GI50 of 48 nM. Besides, the 50% inhibitory concentration (IC50) on human Akt1 was determined as 1.6 nM; on Rsk1 it was 1.8 nM.

On to `CN(C)CCn1cc(-c2ccc(F)c(C(F)(F)F)c2)nc1C1CCN(c2ncnc3c2C(C)(C)C(=O)N3)CC1` [Comparative Example A, reference compound], for which the results for the GI50 in experiment [1] and in experiment [2] were 1050 nM and 1.04 µM, respectively.

For `CC1C(=O)Nc2ncnc(N3CCC(c4nc(-c5ccoc5)ccc4NCCN4CCCC4)CC3)c21` (stereo not drawn) [Compound 14, 4-(4-(6-(Furan-3-yl)-3-((2-(pyrrolidin-1-yl)ethyl)amino)pyridin-2-yl)piperidin-1-yl)-5-methyl-5H-pyrrolo[2,3-d]pyrimidin-6(7H)-one], it took 118 nM to inhibit growth in experiment [1] by half (GI50). The IC50 stood at 0.5 nM at human Akt1, 1.7 nM on Rsk1 and 0.9 nM on S6K1.

On to `COc1cncc(-c2ccc(NCCNC(C)C)c(C3CCN(c4ncnc5c4C(C)C(=O)N5)CC3)n2)c1` (stereo not drawn) [Compound 15, 4-(4-(5-((2-(Isopropylamino)ethyl)amino)-5′-methoxy-[2,3′-bipyridin]-6-yl)piperidin-1-yl)-5-methyl-5H-pyrrolo[2,3-d]pyrimidin-6(7H)-one], for which the GI50 in experiment [1] is 122 nM. In addition, the figures for the half-inhibitory concentration (IC50) at human Akt1, on Rsk1 and on S6K1 were 2.1 nM, 1.1 nM and 0.7 nM, respectively.

`CC(C)(C)NCCNc1ccc(-c2cncc(F)c2)nc1C1CCN(c2ncnc3c2C(C)(C)C(=O)N3)CC1` [Compound 1, 4-(4-(5-((2-(Tert-butylamino)ethyl)amino)-5′-fluoro-[2,3′-bipyridin]-6-yl)piperidin-1-yl)-5,5-dimethyl-5H-pyrrolo[2,3-d]pyrimidin-6(7H)-one] showed a GI50 in experiment [1] of 136 nM. Moreover, the IC50 turned out to be 6.8 nM at human Akt1, 1.5 nM on Rsk1 and 0.4 nM on S6K1.

In turn, `CC1(C)C(=O)Nc2ncnc(N3CCC(c4nc(-c5nnc(C(F)F)o5)ccc4NCCN4CCCC4)CC3)c21` [Compound 30, 4-(4-(6-(5-(Difluoromethyl)-1,3,4-oxadiazol-2-yl)-3-((2-(pyrrolidin-1-yl)ethyl)amino)pyridin-2-yl)piperidin-1-yl)-5,5-dimethyl-5H-pyrrolo[2,3-d]pyrimidin-6(7H)-one] returned a GI50 in experiment [1] of 82 nM. In addition, the IC50 on human Akt1 was 14.5 nM; on Rsk1 it was 1.7 nM; at S6K1, 0.5 nM.

The compound `CC1(C)C(=O)Nc2ncnc(N3CCC(c4nc(-c5nc(C(F)(F)F)no5)ccc4NCCN4CCCC4)CC3)c21` [Compound 44, 5,5-Dimethyl-4-(4-(3-((2-(pyrrolidin-1-yl)ethyl)amino)-6-(3-(trifluoromethyl)-1,2,4-oxadiazol-5-yl)pyridin-2-yl)piperidin-1-yl)-5H-pyrrolo[2,3-d]pyrimidin-6(7H)-one] showed a GI50 in experiment [1] of 102 nM. In addition, the IC50 was 2.6 nM on human Akt1, 0.5 nM at Rsk1 and 0.4 nM on S6K1.
